From ChEMBL document CHEMBL3228004, “An attempt to apply lethal synthesis to the design of chemotherapeutic agents. Fluorinated 5 beta-(hydroxyethyl)-4-methylthiazoles” (J Med Chem, 1979)
Activity calls are given as the source filed them. The calls are words filed in the database; no cut-off is given here.

Key:
[1] = tested on: Escherichia coli; assay: Antibacterial activity against Escherichia coli B; type: functional, organism-based
[2] = tested on: Escherichia coli; assay: Antibacterial activity against Escherichia coli AS19; type: functional, organism-based

Structure (SMILES) | inhibition [1] | inhibition [2]
OCCc1scnc1C(F)(F)F | inactive | inactive
Cc1nc(F)sc1CCO | inactive | inactive
